What follows are compounds tested on MALME3 melanoma viability, CellTiter-Glo luminescence, 24 h (assay: growth inhibition of MALME3 cells – cell-based, CellTiter-Glo, cherry-picked, orthogonal assay for MITF inhibitor project, dose response (AID 493191)).

Row | Compound | AC50
1 | O=C1C=CC(=C(c2ccc(O)cc2)c2ccc(O)cc2)C=C1 | 29.4 µM
2 | Cc1ccccc1C(=O)N/N=C/c1ccc([N+](=O)[O-])s1 | 30.9 µM
3 | Cc1cc(C)c2sc(N(CCCN(C)C)C(=O)COc3ccc(Cl)cc3)nc2c1 | 32.7 µM
4 | Cc1ccccc1OCc1n(CC(=O)OC2CC(C)CCC2C(C)C)c2ccccc2[n+]1C (centres undefined) | 9.18 µM
5 | CC(=O)OCCNc1cc(Sc2nc3ccccc3[nH]2)c2nonc2c1[N+](=O)[O-] | 13.6 µM
6 | COc1ccc2nc(N3CCN(C(=O)c4ccc([N+](=O)[O-])o4)CC3)sc2c1 | 21.7 µM
7 | CC(C)Oc1ccc(C(CCNCc2ccc(O)cc2)c2ccccc2)cc1 (centres undefined) | 32.9 µM
8 | O=C(COC(=O)c1ccccc1C(=O)c1ccc(Cl)c([N+](=O)[O-])c1)NC1CC1 | 15.6 µM
9 | Cc1ccc(NC(=O)c2cc(N3C(=O)C=CC3=O)ccc2N2CCOCC2)cc1Cl | 23.5 µM
10 | O=C(NC1CCCC(C(F)(F)F)C1)c1ccc([N+](=O)[O-])o1 (centres undefined) | 20.8 µM
11 | Cc1ccc(Cn2c(=N)n(CC(=O)c3ccc([N+](=O)[O-])cc3)c3ccccc32)cc1 | 18.6 µM
12 | Cc1ccc(NC(=O)Cn2ncc(Cl)c(Cl)c2=O)cc1S(=O)(=O)N1CCCCC1 | 15.8 µM
13 | O=C1CN(C(=O)Cn2ncc(Cl)c(Cl)c2=O)c2ccccc2N1 | 15.4 µM
14 | O=c1c(Cl)c(Cl)cnn1-c1ccccc1 | 5.84 µM
15 | O=C(Nc1cc(-c2nc3ncccc3o2)ccc1Cl)c1ccc([N+](=O)[O-])o1 | 18.2 µM
16 | O=C(CCl)N1CCN(S(=O)(=O)c2ccc3c(c2)CCC3)CC1 | 25.5 µM
17 | CC(C)(C)C(=O)/C(=C/c1ccncc1)n1cncn1 | 21.9 µM
18 | COc1ccc(S(=O)(=O)N2CCCCC2)cc1NC(=O)c1ccc([N+](=O)[O-])o1 | 14.3 µM
19 | O=C(Nc1ccc(N2CCN(C(=O)c3ccccc3)CC2)cc1)c1ccc([N+](=O)[O-])o1 | 9.02 µM
20 | CCCOCc1ccc(O)c2ncccc12 | 32.2 µM
21 | CS(=O)(=O)N1CCN(c2ccc(NC(=O)c3ccc([N+](=O)[O-])o3)cc2)CC1 | 16.7 µM
22 | OCCNc1c2ccccc2nc2c(F)c(F)c(F)c(F)c12 | 15.1 µM

Row | Compound | AC50
23 | CN(C)S(=O)(=O)c1ccc(-c2csc(N/N=C/c3ccc(O)cc3)n2)cc1 | 21.2 µM
24 | CCN(Cc1ccccc1)c1ccc(/C=N/N=C(N)N)cc1 | 24.4 µM
25 | O=C1c2cc([N+](=O)[O-])cc3cc([N+](=O)[O-])cc(c23)C(=O)N1c1ccccn1 | 21.9 µM
26 | Cc1ccc(C(C)C)c(OCc2nn(CC(=O)c3ccc(OC(F)F)cc3)c3[n+]2CCCCC3)c1 | 24.2 µM
27 | CC(C)C(CCNC1CCN(C)CC1)c1ccc(Cl)cc1 (centres undefined) | 24.3 µM
28 | CCOc1ccc(-n2c(C)cc(C(=O)CCl)c2C)cc1 | 19.9 µM
29 | Nc1c(N(CCC2=CCCCC2)C(=O)COc2ccc(F)cc2)c(=O)[nH]c(=O)n1Cc1ccccc1 | 15.8 µM
30 | CCN1CCCC1CNC(=O)c1ccc2c(c1)NC(=O)/C(=C\c1ccc(C)cc1)S2 (centres undefined) | 26 µM
31 | CC(C)C1CC(CCNCc2ccc(N(C)C)cc2)(c2ccccc2)CCO1 (centres undefined) | 29.5 µM
32 | O=C(c1ccccc1)c1cc(Cl)ccc1N1C(=O)C=CC1=O | 9.06 µM
33 | CN1CCN(C2=C(NS(=O)(=O)c3ccccc3)C(=O)c3ccccc3C2=O)CC1 | 11.2 µM
34 | O=C(Cn1ncc(Cl)c(Cl)c1=O)N1CCOCC1 | 20.6 µM
35 | CCC(=O)N1CCN(c2ccc(NC(=O)c3ccc([N+](=O)[O-])o3)cc2Cl)CC1 | 9.97 µM
36 | c1ccc2cc3c(NCCN4CCOCC4)ccnc3cc2c1 | 4.49 µM
37 | CCCNC(=O)COC(=O)c1ccccc1C(=O)c1ccc(Cl)c([N+](=O)[O-])c1 | 16.3 µM
38 | N#CCc1ccc(NC(=O)/C=C/c2ccc([N+](=O)[O-])o2)cc1 | 10.4 µM
39 | O=C(NC1=C(Nc2ccc(Cl)cc2)C(=O)c2ccccc2C1=O)c1ccccc1 | 20.3 µM
40 | O=C(N/N=C/c1ccc([N+](=O)[O-])o1)c1cc2ccccc2o1 | 10.5 µM
41 | CCCCn1c(=N)n(CCOc2ccc(C)cc2)c2ccccc21 | 26.5 µM
42 | CN1CCC(N(C)C(=O)/C=C/c2cn(-c3ccccc3)nc2-c2cccs2)CC1 | 29.7 µM
43 | COc1ccccc1-c1cc(C(F)(F)F)nc(S(C)(=O)=O)n1 | 19.6 µM
44 | COc1ccc(C(=O)/C=C/C(=O)N(CC(=O)NC2CCCCC2)Cc2cccs2)c(O)c1 | 5.25 µM

Row | Compound | AC50
45 | CCS(=O)(=O)c1ccc(N=Nc2ccc(O)c3ncccc23)c(OC)c1 | 5.85 µM
46 | N=c1n(Cc2ccc(Cl)cc2)c2ccccc2n1CC(O)COc1ccccc1 (centres undefined) | 14.8 µM
47 | Cc1cc(C)c2c(N)c3cccc(C)c3nc2n1 | 27.9 µM
48 | CC(C)Oc1ccc(C(CCN)C2CCCCC2)cc1 (centres undefined) | 14.6 µM
49 | CC1CCC(C(C)C)C(OC(=O)Cn2c(-c3ccccc3)[n+](C)c3ccccc32)C1 (centres undefined) | 9.63 µM
50 | CN1CCN(C2=C(NS(=O)(=O)c3cccs3)C(=O)c3ccccc3C2=O)CC1 | 14.6 µM
51 | O=C1C=C(N(CCO)Cc2ccccc2)c2ccccc2C1=O | 16 µM
52 | CC(NC(=O)c1ccc([N+](=O)[O-])o1)C12CC3CC(CC(C3)C1)C2 (centres undefined) | 31.9 µM
53 | CC1CN(C(=O)CCC(=O)NCCCN2CCC(Cc3ccccc3)CC2)c2cc(Cl)ccc2O1 (centres undefined) | 19.4 µM
54 | O=C1Nc2cc(C(=O)NCCN3CCCCCC3)ccc2S/C1=C\c1ccccc1 | 28.4 µM
55 | Cc1ccc2sc(N(CCCN(C)C)C(=O)c3ccc(S(=O)(=O)N(C)C4CCCCC4)cc3)nc2c1C | 18.1 µM
56 | CN(C)CCCN(C(=O)CCc1ccccc1)c1nc2ccc(Br)cc2s1 | 19.2 µM
57 | CC1(C)CC(NC(=O)c2ccc(Cl)c(S(=O)(=O)N(Cc3ccccc3)c3ccccc3)c2)CC(C)(C)N1 | 22.7 µM
58 | COC1=C(Nc2ccccc2)C(=O)c2ccccc2C1=O | 22 µM
59 | S=C=Nc1cccc(C2(N3CCCCC3)CCCCC2)c1 | 26 µM
60 | O=C(Nc1cccc(S(=O)(=O)N2CCCCC2)c1)c1ccc([N+](=O)[O-])o1 | 15.9 µM
61 | O=C1c2ccccc2C(=O)c2c1ncn2-c1ccccc1 | 19.2 µM
62 | CCOC(=O)c1c(C)oc2c(F)c(F)c(F)c(F)c2c1=O | 19.4 µM
63 | O=C(CNC(=O)c1cccc(F)c1)N/N=C/c1ccc([N+](=O)[O-])s1 | 25.1 µM
64 | COc1ccc(Oc2cc(NC(=O)c3nn(C)cc3[N+](=O)[O-])cc([N+](=O)[O-])c2)cc1 | 17.7 µM
65 | O=C(/C=C/c1ccc([N+](=O)[O-])s1)N1CCCCC1 | 30.7 µM
66 | Cc1ccc(NC(=O)CN(C)C(=O)Cn2ncc(Cl)c(Cl)c2=O)cc1 | 8.81 µM

Row | Compound | AC50
67 | N#CC(C#N)=C1C=CC=CN1/C(=C\c1ccco1)C(=O)c1ccc(Br)cc1 | 24.6 µM
68 | Cc1ccc(NC(=O)CCC(=O)N/N=C/c2ccc([N+](=O)[O-])o2)cc1C | 21.9 µM
69 | COc1ccc(C(=O)/C=C/C(=O)N(CC(=O)NC2CCCCC2)Cc2ccccc2OC)c(O)c1 | 4.63 µM
70 | O=C(Cn1ncc(Cl)c(Cl)c1=O)N1CCN(Cc2ccccc2)CC1 | 8.57 µM
71 | CC(=O)Cn1ncc(Br)c(Br)c1=O | 14.6 µM
72 | O=C(CNc1cccc([N+](=O)[O-])c1)N/N=C/c1ccc([N+](=O)[O-])o1 | 16.9 µM
73 | Cc1ccc(S(=O)(=O)N2CCCCC2)cc1NC(=O)Cn1ncc(Cl)c(Cl)c1=O | 6.08 µM
74 | O=C(NCC1CCCCC1)C1(CC2CC(c3cccc(Br)c3)=NO2)CCNCC1 (centres undefined) | 24.4 µM
75 | CCN1CCN(c2ccc(S(=O)(=O)N3CCCCC3)cc2NC(=O)/C=C/c2ccc([N+](=O)[O-])cc2)CC1 | 23.9 µM
76 | CCCCn1c(=N)n(CC(=O)c2ccc(Br)s2)c2ccccc21 | 33.2 µM
77 | CN(C)CCCNC(=O)/C(=C\c1ccc(-c2ccc(Br)cc2)o1)NC(=O)c1ccccc1 | 16.3 µM
78 | CS(=O)(=O)c1ncc(Cl)c(C(=O)Nc2ccc3ccccc3c2)n1 | 15.2 µM
79 | COC(=O)c1ccc2c(c1O)C(=O)c1ccccc1C2=O | 2.82 µM
80 | COc1cccc(C(=O)Oc2c(CN3CCOCC3)cc(Cl)c3cccnc23)c1 | 30.7 µM
81 | COc1cc(/C=N/NC(N)=O)c(Br)cc1OCC(=O)Nc1ccccc1C | 29.4 µM
82 | O=[N+]([O-])c1ccc(/C=N/N=C/c2ccc([N+](=O)[O-])o2)o1 | 12.9 µM
83 | COc1cccc2sc(N3CCN(C(=O)c4ccc([N+](=O)[O-])o4)CC3)nc12 | 23.4 µM
84 | CC1CCC/C=C/C(=O)c2c(O)cc(O)cc2CC(=O)O1 (centres undefined) | 21.2 µM
85 | N=c1n(CC(=O)c2ccc([N+](=O)[O-])cc2)c2ccccc2n1Cc1ccc(Cl)cc1 | 17.2 µM
86 | CC(=O)Nc1ccc(Nc2c3ccccc3nc3ccccc23)cc1 | 25.2 µM
87 | Cc1c(CCOC(=O)c2ccc(Cl)cc2Cl)sc[n+]1CC(=O)c1ccc(Br)cc1 | 29.3 µM
88 | COc1cc(NC(=O)c2ccc([N+](=O)[O-])o2)ccc1NC(=O)c1cccs1 | 13.1 µM

Row | Compound | AC50
89 | O=C(N/N=C\c1ccc([N+](=O)[O-])o1)C1COc2ccccc2O1 (centres undefined) | 32.7 µM
90 | O=C(COc1ccc(Cl)cc1Cl)Nc1ccccn1 | 14.5 µM
91 | CC(C)=NOc1cc(NC(=O)CCl)cc([N+](=O)[O-])c1 | 5.64 µM
92 | N#CC(C#N)=C1C=CC=CN1/C(=C\c1ccco1)C(=O)c1ccc(Cl)cc1 | 27.3 µM
93 | CC1CCC(C(C)C)C(OC(=O)Cn2c(-c3ccc(F)cc3)[n+](C)c3ccccc32)C1 (centres undefined) | 12.5 µM
94 | CCSCCc1nnc(NC(=O)Nc2cccc(C(F)(F)F)c2)s1 | 29 µM
95 | COc1cccc(CNCCc2c[nH]c3ccccc23)c1OCc1ccccc1 | 17.9 µM
96 | COc1ccc(-c2cc(-c3ccccc3)c(C#N)c(S(C)=O)n2)cc1 (centres undefined) | 23.8 µM
97 | Cc1cc(NC(=O)c2cncc(Br)c2)ccc1NC(=O)c1cc2ccccc2o1 | 17 µM
98 | CCn1c(=O)c([N+](=O)[O-])c(Cl)c2ccccc21 | 27.9 µM
99 | O=C(Cn1ncc(Cl)c(Cl)c1=O)N1CCc2ccccc21 | 5.98 µM
100 | CC(C)(C)c1ccc(OCCCNCc2ccccc2)cc1 | 27.4 µM
101 | Cc1ccc(-c2nc(C(=O)NCCCN(C)C)cc3c2[nH]c2ccccc23)cc1 | 31.1 µM
102 | CCOc1cc(/C=N/N=C(N)N)ccc1OCc1ccc(Cl)cc1 | 18.8 µM
103 | Cn1nnnc1Sc1ncnc2scc(-c3ccc(C#N)cc3)c12 | 28.5 µM
104 | CCOC(=O)CSC1=NC(=O)/C(=C\c2ccc(Cl)cc2)S1 | 16.2 µM
105 | O=C1/C(=C/c2ccccc2[N+](=O)[O-])COc2ccccc21 | 25.3 µM
106 | Cc1ccc(C(=O)N/C(=C\c2ccc(-c3ccc(Br)cc3)o2)C(=O)NCCCN(C)C)cc1 | 14.2 µM
107 | N=c1n(CCN2CCCC2)c2ccccc2n1CC(O)c1ccc(Cl)c(Cl)c1 (centres undefined) | 22.5 µM
108 | CC(C)C(=O)N1CCN(c2ccc(NC(=O)c3ccc([N+](=O)[O-])o3)cc2Cl)CC1 | 19.2 µM
109 | COc1ccccc1CNCC(O)Cn1c2ccccc2c2ccccc21 (centres undefined) | 20 µM
